The nature of data set [1]: Average cluster size in solution. Format: physicochemical. From the text:
By intermolecular interactions the contrast media molecules form clusters that are continuously formed and broken up and the average cluster size may be described by a formation/destruction equilibrium. Ioforminol has an increased tendency to form clusters and in water at high concentration an average size of 4 molecules per cluster is predominating, whereas Iodixanol under similar conditions have a mean cluster size of 2.5 molecules. […] The cluster size affects the osmolality of the solution and larger clusters are reflected in a lower osmolality. The non-ideal behaviour of high concentration solutions permits the addition of physiological electrolytes to achieve isotonicity. […] This non-ideal behaviour persistent also at low concentrations enables the addition of physiological electrolytes to the current formulations.

Data set [2] can be described thus: Aorta contrast to noise ratio (CNR), arterial phase contrast enhanced abdominal CT. The data set is classed as in vivo, minipig. The following applies: for FBP [CNR]: 320 mg I/ml, 120 kVp, SoC. The procedure: (§1) Three studies were carried out in two anaesthetized minipigs (abdominal maximum and minimum diameters approximately 36 cm and 20 cm, respectively). Minipigs were imaged on a Discovery CT 750 HD. Compositions of 160 mg I/ml and 200 mg I/ml Ioforminol were prepared. The 160 mg I/ml formulation included a sodium concentration of 82 mM and a calcium concentration of 0.9 mM. The 200 mg I/ml formulation included a sodium concentration of 73 mM and a calcium concentration of 0.8 mM. For human formulations the calcium concentration is likely to be slightly lower, providing an optimized Na/Ca ratio of 110-120. The Ioforminol formulations (2 ml/kg) were injected at a rate of 2 ml/s into a jugular vein, followed by a 20 ml saline flush at the same injection rate.
(§2) For comparison, Ioforminol at a concentration of 320 mg I/ml and 120 kVp tube voltage was administered to represent the current standard of care (SoC) imaging in man. SoC scans were compared to scans performed with either […] or 200 mg I/ml contrast concentration in the same pig, with at least a 2 day washout period between each scanning session. Automated tube current modulation was used with a noise index level of 23 (SoC) and a tube rotation time of 0.7 s. Post-contrast CT images were acquired during the arterial phase, the portal venous phase, the venous phase and the late phase. Image reconstruction was done by (1) FBP, (2) ASiR 60% and (3) Veo. Pixel size was 0.703 mm×0.703 mm×2.5 mm.
(§3) Iodine contrast enhancement was assessed by measuring the mean x-ray attenuation values (in HUs) within circular region of interests (ROIs). ROIs were placed in both aorta and muscle (quadratus lumborum) in arterial phase images and in the liver in venous phase images. See Tables 1-6 and corresponding FIGS. 1-6. The aorta contrast to noise ratio (CNR) was calculated as the difference in signal between the aorta and muscle, divided by the noise in muscle. The liver signal to noise ratio (SNR) was calculated as the ratio of the mean liver attenuation and the standard deviation (SD).

Data set [3] in a line: Viscosity of Ioforminol compositions. Format: physicochemical. The following applies: 20° C. The method, then:
For X-ray diagnostic compositions which are administered by injection or infusion, the desired upper limit for the solution's viscosity at ambient temperature (20° C.) is generally about 30 mPas, however viscosities of up to 50 to 60 mPas and even more than 60 mPas are seen. With the low concentration of iodine in the composition of the invention the viscosity is below 10 mPas at 20° C., and this is even considerably lower at the lower end of the iodine concentration range. […] For comparison a 320 mg I/ml composition of Ioforminol has a viscosity of 28 mPas (at 20° C.). Particularly, for a 160 mg I/ml composition of Ioforminol the viscosity is only 2.9 mPas (at 20° C.), and for a 200 mg I/ml composition the viscosity is 4.7 mPas (20° C.). […] Such low viscosity has the advantage that the composition is easy to administer and the administration can be done more quickly with a higher volume per time unit, particularly as the injection pressure needed is considerably lower than with compositions with higher viscosities. The lower viscosity enables a reduction in the needle- or catheter diameter down to about 63% of the original diameter without effecting flow rate or injection pressure. As a consequence a hand-held syringe can be used rather than an autoinjector.

A short description of data set [4]: Liver signal to noise ratio (SNR), venous phase contrast enhanced abdominal CT. Format: in vivo, minipig. The following applies: for FBP [SNR]: 320 mg I/ml, 120 kVp, SoC. The method, then: as §1, §2, §3
The mark [5] stands for this setting: 160 mg I/ml, 80 kVp, CTDIvol 5.2 mGy, FIG. 2.
Where [6] appears, read: 200 mg I/ml, 80 kVp, CTDIvol 6.9 mGy, FIG. 1.
The mark [7] stands for this setting: 200 mg I/ml, 100 kVp, CTDIvol 5.2 mGy, FIG. 3.
Where [8] appears, read: 160 mg I/ml, 80 kVp, CTDIvol 5.2 mGy, FIG. 5.
[9] abbreviates: 200 mg I/ml, 80 kVp, CTDIvol 6.9 mGy, FIG. 4.
The mark [10] stands for this setting: 200 mg I/ml, 100 kVp, CTDIvol 5.2 mGy, FIG. 6.

For `CC(=O)N(CC(O)CN(C(C)=O)c1c(I)c(C(=O)NCC(O)CO)c(I)c(C(=O)NCC(O)CO)c1I)c1c(I)c(C(=O)NCC(O)CO)c(I)c(C(=O)NCC(O)CO)c1I` (centres unmarked) [Iodixanol, iodixanol, reference compound], the average cluster size in data set [1] (in water at high concentration) is given as 2.5 molecules per cluster; in data set [1] (low concentrations), “no longer present”.

As for `O=CN(CC(O)CN(C=O)c1c(I)c(C(=O)NCC(O)CO)c(I)c(C(=O)NCC(O)CO)c1I)c1c(I)c(C(=O)NCC(O)CO)c(I)c(C(=O)NCC(O)CO)c1I` (centres unmarked) [Ioforminol, 5,5′-((2-hydroxypropane-1,3-diyl)bis(formylazanediyl))bis(N1,N3-bis(2,3-dihydroxypropyl)-2,4,6-triiodoisophthalamide)], the “ASiR 60% [CNR]” value in data set [2] (setting [5]) was found to be 15.1; in data set [2] (setting [6]), 23; in data set [2] (setting [7]) it was 17.7. Besides, the “Veo [CNR]” value in data set [2] (setting [5]) worked out at 32.1; in data set [2] (setting [6]), 46.7; in data set [2] (setting [7]), 33.2. The “FBP [CNR]” value in data set [2] (CTDIvol 7.4 mGy, FIG. 2 and 3) is recorded as 16.9; in data set [2] (CTDIvol 9.8 mGy, FIG. 1), 17.7. The figures for the average cluster size in data set [1] (in water at high concentration) and in data set [1] (low concentrations) were 4 molecules per cluster and 2-3 molecules per cluster, respectively. Moreover, the viscosity in data set [3] (160 mg I/ml composition) was determined as 2.9 mPas; in data set [3] (200 mg I/ml composition) it was 4.7 mPas; in data set [3] (320 mg I/ml composition), 28 mPas. Also, the “ASiR 60% [SNR]” value in data set [4] (setting [8]) was found to be 7.7; in data set [4] (setting [9]), 9.5; in data set [4] (setting [10]) it was 7.9. Further, the figures for the “Veo [SNR]” value in data set [4] (setting [8]), in data set [4] (setting [9]) and in data set [4] (setting [10]) were 15.1, 16.7 and 13.1, respectively. Further, the “FBP [SNR]” value in data set [4] (CTDIvol 7.4 mGy, FIG. 5 and 6) is listed as 8.2; in data set [4] (CTDIvol 9.8 mGy, FIG. 4) it was 7.7.

The values above are taken from patent US10004816B2, “X-ray imaging contrast media with low iodine concentration and X-ray imaging process” (GE HEALTHCARE AS, priority 2012, dated 2018).
